From ChEMBL document CHEMBL1127525, “Synthesis and antitumor activities of novel 6-5 fused ring heterocycle antifolates: N-[4-[omega-(2-amino-4-substituted-6,7-dihydrocyclopenta [d]pyrimidin-5-yl)alkyl]benzoyl]-L-glutamic acids” (J Med Chem, 1994)

Columns and labels:
MC-38 = assay: Inhibitory concentration of compound was tested against Colon 38 tumor growth cell line; type: functional, cell-based; details: Mus musculus
Colon 26 [1] = assay: (§1) Inhibitory concentration of compound was tested against Colon 26 tumor growth cell line; type: functional, cell-based; details: Mus musculus
Colon 26 [2] = assay: Inhibitory concentration of compound was tested against Colon 26 Mouse Colorectal Carcinoma on 4 hour exposure; type: functional, cell-based; details: Colon 26, 4 h
KB = assay: Inhibitory concentration of compound was tested against KB tumor growth cell line; type: functional, cell-based; details: Homo sapiens
Mus musculus [3] = assay: Compound was evaluated for the activity against LC-6 Non-Small cell lung carcinoma in mice by tumor weight assay at 40 (mg/kg) dose experiment-2; type: functional
Mus musculus [4] = assay: Compound was evaluated for the activity against Colon 26 Mouse colorectal carcinoma in mice by tumor weight assay at 10 (mg/kg) dose; type: functional
Mus musculus [5] = assay: Compound was evaluated for the activity against Colon 26 Mouse colorectal carcinoma in mice by tumor weight assay at 20 (mg/kg) dose; type: functional
Mus musculus [6] = assay: Compound was evaluated for the activity against LC-6 Non-Small cell lung carcinoma in mice by tumor weight assay at 10 (mg/kg) dose experiment-2; type: functional
Mus musculus [7] = assay: Compound was evaluated for the activity against LC-6 Non-Small cell lung carcinoma in mice by tumor weight assay at 10 (mg/kg) dose in experiment-1; type: functional
Mus musculus [8] = assay: Compound was evaluated for the life span assay against P388 Leukemia in mice (Controls died in an average of 9.8 days) at 0.2 (mg/kg) dose; type: functional
Mus musculus [9] = assay: Compound was evaluated for the life span assay against P388 Leukemia in mice (Controls died in an average of 9.8 days) at 0.39 (mg/kg) dose; type: functional
Mus musculus [10] = assay: Compound was evaluated for the life span assay against P388 Leukemia in mice (Controls died in an average of 9.8 days) at 0.78 (mg/kg) dose; type: functional
Mus musculus [11] = assay: Compound was evaluated for the life span assay against P388 Leukemia in mice (Controls died in an average of 9.8 days) at 1.56 (mg/kg) dose; type: functional
Mus musculus [12] = assay: Compound was evaluated for the life span assay against P388 Leukemia in mice (Controls died in an average of 9.8 days) at 12.5 (mg/kg) dose; type: functional
Mus musculus [13] = assay: Compound was evaluated for the life span assay against P388 Leukemia in mice (Controls died in an average of 9.8 days) at […] (mg/kg) dose; type: functional
Mus musculus [14] = assay: Compound was evaluated for the life span assay against P388 Leukemia in mice (Controls died in an average of 9.8 days) at 3.13 (mg/kg) dose; type: functional
Mus musculus [15] = assay: Compound was evaluated for the activity against LC-6 Non-Small cell lung carcinoma in mice by tumor weight assay at 20 (mg/kg) dose experiment-1; type: functional
Mus musculus [16] = assay: Compound was evaluated for the activity against LC-6 Non-Small cell lung carcinoma in mice by tumor weight assay at 20 (mg/kg) dose experiment-2; type: functional
P388 [17] = assay: Inhibitory concentration of compound was tested against P388 tumor growth cell line; type: functional, cell-based; details: Mus musculus
P388 [18] = assay: Inhibitory concentration of compound was tested against P388:Methotrexate resistant cells tumor growth cell line; type: functional, cell-based; details: Mus musculus
Mus musculus [19] = assay: Compound was evaluated for the activity against LC-6 Non-Small cell lung carcinoma in mice by tumor weight assay at 5 (mg/kg) dose experiment-1; type: functional
Mus musculus [20] = assay: Compound was evaluated for the activity against LC-6 Non-Small cell lung carcinoma in mice by tumor weight assay at 5 (mg/kg) dose experiment-2; type: functional
Mus musculus [21] = assay: Compound was evaluated for the activity against Colon 26 Mouse colorectal carcinoma in mice by tumor weight assay at 0.3 (mg/kg) dose; type: functional
Mus musculus [22] = assay: Compound was evaluated for the activity against Colon 26 Mouse colorectal carcinoma in mice by tumor weight assay at 0.6 (mg/kg) dose; type: functional
Mus musculus [23] = assay: Compound was evaluated for the activity against Colon 26 Mouse colorectal carcinoma in mice by tumor weight assay at 1.25 (mg/kg) dose; type: functional
Mus musculus [24] = assay: Compound was evaluated for the activity against Colon 26 Mouse colorectal carcinoma in mice by tumor weight assay at 2.5 (mg/kg) dose; type: functional
Mus musculus [25] = assay: Compound was evaluated for the activity against LC-6 Non-Small cell lung carcinoma in mice by tumor weight assay at 1.3 (mg/kg) dose experiment-2; type: functional
Mus musculus [26] = assay: Compound was evaluated for the activity against LC-6 Non-Small cell lung carcinoma in mice by tumor weight assay at 2.5 (mg/kg) dose experiment-1; type: functional
Mus musculus [27] = assay: Compound was evaluated for the activity against LC-6 Non-Small cell lung carcinoma in mice by tumor weight assay at 2.5 (mg/kg) dose experiment-2; type: functional
Mus musculus [28] = assay: Compound was evaluated for the life span assay against P388 Leukemia in mice (Controls died in an average of 9.8 days) at 0.05 (mg/kg) dose; type: functional
Mus musculus [29] = assay: Compound was evaluated for the life span assay against P388 Leukemia in mice (Controls died in an average of 9.8 days) at 0.1 (mg/kg) dose; type: functional
Mus musculus [30] = assay: Compound was evaluated for the activity against LC-6 Non-Small cell lung carcinoma in mice by tumor weight assay at 40 (mg/kg) dose; type: functional
Mus musculus [31] = assay: Compound was evaluated for the activity against LC-6 Non-Small cell lung carcinoma in mice by tumor weight assay at 10 (mg/kg) dose; type: functional
Mus musculus [32] = assay: Compound was evaluated for the life span assay and the activity against P388 Leukemia in mice (Controls died in an average of 9.8 days) at 3.13 (mg/kg) dose; type: functional
Mus musculus [33] = assay: Compound was evaluated for the activity against LC-6 Non-Small cell lung carcinoma in mice by tumor weight assay at 20 (mg/kg) dose; type: functional
Mus musculus [34] = species: Mus musculus; assay: as §1; type: functional
Mus musculus [35] = assay: Compound was evaluated for the activity against Colon 26 Mouse colorectal carcinoma in mice by tumor weight assay at 40 (mg/kg) dose
Dihydrofolate reductase [36] = biological target: T1, Dihydrofolate reductase (Mus musculus, UniProt P00375); assay: Compound was tested for the inhibition of dihydrofolate reductase in P388 cells; type: cell-based
T1 sequence (P00375 whole entry): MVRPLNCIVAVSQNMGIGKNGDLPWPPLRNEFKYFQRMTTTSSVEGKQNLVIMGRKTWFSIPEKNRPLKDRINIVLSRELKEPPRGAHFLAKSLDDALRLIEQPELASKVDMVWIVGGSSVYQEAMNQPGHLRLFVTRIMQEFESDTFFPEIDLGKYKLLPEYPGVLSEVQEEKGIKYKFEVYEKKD

P388 [37] = assay: inhibitory concentration of compound was tested against P388:Methotrexate resistant cells tumor growth cell line; type: functional, cell-based; details: Mus musculus
P388 (Mus musculus) = assay: Inhibitory concentration of compound was tested against P388 tumor growth cell line
Dihydrofolate reductase [38] = biological target: T1, Dihydrofolate reductase; assay: Binding affinity against dihydrofolate reductase
Thymidylate synthase = biological target: T2, Thymidylate synthase (Lactobacillus casei, UniProt P00469); assay: Binding affinity against TS
T2 sequence (P00469 whole entry): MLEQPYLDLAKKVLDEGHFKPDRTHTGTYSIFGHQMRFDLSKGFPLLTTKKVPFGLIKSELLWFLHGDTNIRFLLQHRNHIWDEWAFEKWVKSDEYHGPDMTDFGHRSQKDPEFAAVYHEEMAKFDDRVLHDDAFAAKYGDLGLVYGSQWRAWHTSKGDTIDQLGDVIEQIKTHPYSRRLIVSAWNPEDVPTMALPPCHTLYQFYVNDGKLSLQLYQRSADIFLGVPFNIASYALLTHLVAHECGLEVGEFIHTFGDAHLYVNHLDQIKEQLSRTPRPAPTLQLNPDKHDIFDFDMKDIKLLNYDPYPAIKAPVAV

Mus musculus [39] = assay: Compound was evaluated for the activity against Colon 26 Mouse colorectal carcinoma in mice by tumor weight assay at 5 (mg/kg) dose; type: functional
Mus musculus [40] = assay: Compound was evaluated for the life span assay against P388 Leukemia in mice (Controls died in an average of 9.8 days) at 50 (mg/kg) dose; type: functional

CCC(Cc1cnc2nc(N)nc(N)c2n1)c1ccc(C(=O)N[C@@H](CCC(=O)O)C(=O)O)cc1 (stereo partly specified) [EDATREXATE]
IC50 (MC-38): 11 nM | IC50 (Colon 26 [1]): 4.8 nM | IC50 (Colon 26 [2]): > 40000 nM | IC50 (KB): 3 nM | T/C (Mus musculus [3]): 1% | T/C (Mus musculus [4]): 70% | T/C (Mus musculus [5]): 64% | T/C (Mus musculus [6]): 22% | T/C (Mus musculus [7]): 63% | T/C (Mus musculus [8]): 114% | T/C (Mus musculus [9]): 135% | T/C (Mus musculus [10]): 136% | T/C (Mus musculus [11]): 155% | T/C (Mus musculus [12]): 157% | T/C (Mus musculus [13]): 165% | T/C (Mus musculus [14]): 162% | T/C (Mus musculus [15]): 38% | T/C (Mus musculus [16]): 1% | IC50 (P388 [17]): 4.3 nM | IC50 (P388 [18]): 44 nM

Nc1nc(N)c2c(n1)CCC2CCCc1ccc(C(=O)NC(CCC(=O)O)C(=O)O)cc1 (stereo unspecified)
IC50 (MC-38): 5.1 nM | IC50 (Colon 26 [1]): 3 nM | IC50 (Colon 26 [2]): 1700 nM | IC50 (KB): 1.7 nM | T/C (Mus musculus [19]): 23% | T/C (Mus musculus [20]): 1% | T/C (Mus musculus [21]): 71% | T/C (Mus musculus [22]): 49% | T/C (Mus musculus [23]): 38% | T/C (Mus musculus [24]): 31% | T/C (Mus musculus [25]): 4% | T/C (Mus musculus [26]): 6% | T/C (Mus musculus [27]): 9% | T/C (Mus musculus [28]): 120% | T/C (Mus musculus [29]): 130% | T/C (Mus musculus [8]): 147% | T/C (Mus musculus [9]): 158% | T/C (Mus musculus [10]): 170% | T/C (Mus musculus [11]): 180% | T/C (Mus musculus [14]): 138% | IC50 (P388 [18]): 19 nM

CN(Cc1cnc2nc(N)nc(N)c2n1)c1ccc(C(=O)N[C@@H](CCC(=O)O)C(=O)O)cc1 [METHOTREXATE]
IC50 (Colon 26 [2]): > 40000 nM | IC50 (KB): 19 nM | T/C (Mus musculus [30]): 35% | T/C (Mus musculus [4]): 71% | T/C (Mus musculus [5]): 65% | T/C (Mus musculus [31]): 100% | T/C (Mus musculus [10]): 122% | T/C (Mus musculus [13]): 168% | T/C (Mus musculus [32]): 149% | T/C (Mus musculus [33]): 53% | IC50 (Mus musculus [34]): 31 nM | IC50 (P388 [17]): 23 nM | IC50 (P388 [18]): 223 nM | T/C (Mus musculus [35]): 31%

Nc1nc2c(c(=O)[nH]1)C(CCc1ccc(C(=O)NC(CCC(=O)O)C(=O)O)cc1)CC2 (stereo unspecified)
IC50 (MC-38): > 1000 nM | IC50 (Colon 26 [1]): > 1000 nM | IC50 (Dihydrofolate reductase [36]): 2.1 nM | IC50 (KB): > 1000 nM | IC50 (P388 [37]): > 1000 nM | IC50 (P388 (Mus musculus)): > 1000 nM

Nc1nc(O)c2c(n1)CCC2CCCc1ccc(C(=O)NC(CCC(=O)O)C(=O)O)cc1 (stereo unspecified)
IC50 (Colon 26 [1]): > 1000 nM | IC50 (KB): > 1000 nM | IC50 (P388 [18]): > 1000 nM | IC50 (P388 (Mus musculus)): > 1000 nM

Nc1nc2[nH]cc(CCc3ccc(C(=O)N[C@@H](CCC(=O)O)C(=O)O)cc3)c2c(=O)[nH]1 [PEMETREXED]
Ki (Dihydrofolate reductase [38]): 560 nM | Ki (Thymidylate synthase): 550 nM

Nc1nc(N)c2c(n1)CCC2CCc1ccc(C(=O)NC(CCC(=O)O)C(=O)O)cc1 (stereo unspecified)
IC50 (MC-38): 10 nM | IC50 (Colon 26 [1]): 8 nM | IC50 (Colon 26 [2]): 190 nM | IC50 (Dihydrofolate reductase [36]): 72 nM | IC50 (KB): 4.1 nM | T/C (Mus musculus [4]): 41% | T/C (Mus musculus [24]): 95% | T/C (Mus musculus [39]): 62% | T/C (Mus musculus [10]): 129% | T/C (Mus musculus [12]): 147% | T/C (Mus musculus [40]): 148% | T/C (Mus musculus [14]): 135% | IC50 (P388 [17]): 7.1 nM | IC50 (P388 [18]): 64 nM
